Measurements reported in US5346919A, “Anti-bacterial substances and microorganisms which produce them” (Nissan Chemical Industries, Ltd., priority 1992, dated 1994).
Values after ≈ are worked out from the molar mass of the structure shown.

Tests used:
Aspergillus nigar = assay: Minimum growth inhibition concentration, agar plate dilution method; assay type: cell-based
Description: (§1) The measurement of the minimum growth inhibition concentration (MIC) was made following the agar plate dilution method using an agar medium containing the compound A.

Botrytis cinerea [1] = assay: as above; assay type: cell-based
Description: as §1

Rhynchosporium secalis = assay: as above; assay type: cell-based
Description: as §1

Sclerotinia cinerea = assay: as above; assay type: cell-based
Description: as §1

Sclerotinia sclerotiorum [2] = assay: as above; assay type: cell-based
Description: as §1

Botrytis cinerea [3] = assay: Test for controlling gray mold on cucumber (prevention test); assay type: in vivo; settings: (1-diameter treated/untreated)×100
Protocol: Test for Controlling Gray Mold (Botrytis cinerea) on Cucumber (Prevention Test)
(§2) Onto 1.5 leaf-stage cucumber (variety: Sagamihanjiro) which had been grown in a 7 cm-diameter pot was sprayed, using a spray gun, a drug solution produced by diluting an emulsifiable concentrate containing the present compound with water to the predetermined concentration, at 10 ml per pot.
(§3) On the following day, the first leaf on which was sprayed the drug solution was plucked off, and onto the surface of the leaf was inoculated a mycelia disk which had been prepared from the tip of a cell cluster of Botrytis cinerea cultured at 20° C. for 2 days in a PSA (potato sucrose agar) medium using a 4 mm-diameter cork borer. Then, the cucumber leaf was allowed to stand for 5 days at 20° C. in a moist chamber, the diameter of the diseased spots which formed were measured, and the degree of control was determined according to the following equation. Here, iprodion (trade name: Lobral) was used as a control preparation.
Preventive value=(1-diameter of disease spots of drug-treated group/diameter of disease spots of untreated group)×100

cucumber [4] = assay: Toxicity in gray mold prevention test on cucumber; assay type: in vivo, cucumber (variety: Sagamihanjiro)
Protocol: as §2, §3

Botrytis cinerea [5] = assay: Test for controlling gray mold on cucumber (curative test); assay type: in vivo; settings: (1-length treated/untreated)×100
Protocol: Test for Controling Gral Mold (Botrytis cinerea) on Cucumber (Curative Test)
The first leaf was plucked off from 1.5 leaf-sage cucumber (variety: Sgamihanjiro) which had been grown in a 7 cm-diameter pot, and a mycelia disk of Botrytis cinerea was inoculated in the same manner as in the Experiment 1. Then, the cucumber leaf was allowed to stand for 2 days at 20° C. in a moist chamber, and when the disease spots reached approximately […] in diameter, a drug solution produced by deluting an emulsion containing the present compound with water to the desired concentration was sprayed at 10 ml per leaf using a spray gun, and after drying in air the leaf was allowed to stand for 3 days at 20° C. in a moist chamber.
The lengths of the newly developed diseases spots were measured, and the preventive value was determined using the following equation.
Preventive value=(1-length of diseased spots of drug-treated group/length of diseased spots of untreated group)×100

[6] = tested on: platelet aggregation (ADP); assay: Anti-platelet aggregation effect, ADP-induced; assay type: cell-based, Hartley male guinea-pigs; settings: Cavia porcellus; ADP 5 μM; guinea-pig platelet rich plasma, 37° C., 0.5% DMSO
Protocol: (§4) Blood was collected from the abdominal artery of Hartley male guinea-pigs (weight: about 300 g) into a syringe containing 1/10 volume 3.8% sodium citrate. The blood thus obtained was subjected to a centrifugation at 160×g for 10 minutes at room temperature to obtain platelet rich plasma (PRP). Furthermore, the residue was subjected to a centrifugation at 1500×g for 15 minutes to obtain platelet poor plasma (PPP). The measurement was carried out by diluting PRP with PPP to 300,000/mm^3. The measurement range of transmittance was adjusted to 0% in the case of PRP and to 100% in the case of PPP. Thereafter, a test compound dissolved in 100% dimethylsulfoxide (DMSO) was added to PRP (the final concentration of DMSO: 0.5%). After incubation at 37° C., 1000 rpm for 2 minutes, an aggregating agent was added to measure an aggregation curve. The anti-platelet aggregation effect of the test compound was expressed by a concentration (IC50 :μM) at which the aggregation of control was 50% inhibited. The aggregating agents used were ADP (the final concentration: 5 μM), collagen (the final concentration: 2 μg/ml) and U46619 (the final concentration: 0.5 μM). The measurement of platelet aggregation was carried out using NBS HEMA Tracer 601.

[7] = tested on: platelet aggregation (collagen); assay: Anti-platelet aggregation effect, collagen-induced; assay type: cell-based, Hartley male guinea-pigs; settings: Cavia porcellus; collagen 2 μg/ml; guinea-pig platelet rich plasma, 37° C., 0.5% DMSO
Protocol: as §4

[8] = tested on: platelet aggregation (U46619); assay: Anti-platelet aggregation effect, U46619-induced; assay type: cell-based, Hartley male guinea-pigs; settings: Cavia porcellus; U46619 0.5 μM; guinea-pig platelet rich plasma, 37° C., 0.5% DMSO
Protocol: as §4

Solubility in solvents = assay type: physicochemical
Sclerotinia sclerotiorum [9] = assay: Test for controlling cucumber Sclerotinia rot (prevention test); assay type: in vivo; settings: Sclerotinia rot on cucumber, (1-diameter treated/untreated)×100
Protocol: Test for Controling Cucumber Sclerotinia Rot (Sclerotinia sclerotiorum) (Prevention Test)
as §2
(§5) On the following day, the first leaf on which was sprayed the drug solution was plucked off, and onto the surface of the leaf was inoculated a mycelia disk which had been prepared from the tip of a cell cluster of Sclerotinia sclerotiorum cultured at 20° C. for 1 day in a PSA medium by using a 4 mm-diameter cork borer. Then, the cucumber leaf was allowed to stand for 3 days at 20° C. in a moist chamber, the diameter of the disease spots which formed were measured measured, and the preventive value was determined according to the following equation.
Preventive value=(1-diameter of diseased spots of drug-treated group/diameter of disease spots of untreated group)×100

cucumber [10] = assay: Toxicity in Sclerotinia rot prevention test on cucumber; assay type: in vivo, cucumber (variety: Sagamihanjiro)
Protocol: as §2, §5

| Compound | Preventive value (Botrytis cinerea [3]; 25 ppm spraying) | Preventive value (Botrytis cinerea [3]; 50 ppm spraying) | Preventive value (Botrytis cinerea [3]; 100 ppm spraying) | Toxicity (cucumber [4]; 25 ppm spraying) | Toxicity (cucumber [4]; 50 ppm spraying) | Toxicity (cucumber [4]; 100 ppm spraying) | Preventive value (Botrytis cinerea [5]; 50 ppm spraying) | Preventive value (Botrytis cinerea [5]; 100 ppm spraying) | also measured |
| --- | --- | --- | --- | --- | --- | --- | --- | --- | --- |
| CCCCC1CC2=C(C(=O)OC2=O)C(C(O)CCCC)CC2=C1C(=O)OC2=O (stereo not drawn) [Compound A] | 100 | 100 | 100 | none | none | none | 73 | 79 | MIC (Aspergillus nigar): 3.13 mg/L (≈ 8.02 µM); MIC (Botrytis cinerea [1]): 0.78 mg/L (≈ 2 µM); MIC (Rhynchosporium secalis): 1.56 mg/L (≈ 4 µM); MIC (Sclerotinia cinerea): 3.13 mg/L (≈ 8.02 µM); MIC (Sclerotinia sclerotiorum [2]): 1.56 mg/L (≈ 4 µM); IC50 [6]: 187 µM; IC50 [7]: 42 µM; IC50 [8]: 484 µM; Solubility in solvents (Solubility in solvents; chloroform, ethyl acetate, methanol): readily soluble; Solubility in solvents (Solubility in solvents; water): sparingly soluble |
| CC(C)NC(=O)N1CC(=O)N(c2cc(Cl)cc(Cl)c2)C1=O [Iprodion, iprodion, reference compound] | 25 | 95 | 100 | none | none | none | 70 | 75 | Preventive value (Sclerotinia sclerotiorum [9]; 50 ppm spraying): 100; Preventive value (Sclerotinia sclerotiorum [9]; 100 ppm spraying): 100; Toxicity (cucumber [10]; 50 ppm spraying): none; Toxicity (cucumber [10]; 100 ppm spraying): none |
